Where “and” joins values, the source holds several entries; their conditions need not be identical. Equal entries are not always repeated. Numbers after ± are expanded uncertainties.
Details: 101 kPa, Liquid

Row | mass density (303.15 K) [kg/m3] | viscosity (303.15 K) [mPa·s] | mass density (308.15 K) [kg/m3] | viscosity (308.15 K) [mPa·s] | mass density (313.15 K) [kg/m3] | viscosity (313.15 K) [mPa·s] | mass density (318.15 K) [kg/m3] | viscosity (318.15 K) [mPa·s] | mass density (323.15 K) | viscosity (323.15 K) [mPa·s] | Compound
1 | 776.4 ± 1.9 | 1.792 ± 0.081 | 772.6 ± 2 | 1.553 ± 0.071 | 768.6 ± 2.1 | 1.355 ± 0.062 | 763.9 ± 2.3 | 1.182 ± 0.055 | 758.8 ± 2.4 kg/m3 | 1.041 ± 0.049 | CC(C)O [propan-2-ol]
2 | 1090.7 ± 2.9 | 1.832 ± 0.082 | 1084.7 ± 3 | 1.67 ± 0.076 | 1082.3 ± 3.2 | 1.537 ± 0.07 | 1075.1 ± 3.2 | 1.408 ± 0.065 | 1070.1 ± 3.4 kg/m3 and 1070 ± 3.4 kg/m3 | 1.289 ± 0.06 | C[S+](C)[O-] [dimethyl sulfoxide]
3 | 795.5 ± 2 | 1.733 ± 0.078 | 791.1 ± 2.1 | 1.534 ± 0.07 | 787 ± 2.2 | 1.367 ± 0.063 | 783.3 ± 2.3 | 1.234 ± 0.058 | 779.5 ± 2.4 kg/m3 | 1.1 ± 0.052 | CCCO [propan-1-ol]
